Laboratory results published in patent US20100029702A1, “Method For Identification of Compound Having Anti-Anxiety Effect” (priority 2006, published 2010).

Legend:
hk01941 = target: T1, hk01941 (Homo sapiens, UniProt O60241, DEL308-417); assay: Changes in intracellular Ca2+ concentration in hk01941 stably-expressing strain; type: cell-based
T1 construct: a vector expressing each full-length cDNA clone was constructed; expressed in transfected cells; host or cells: CHO-K1, hk01941/pcDNA3.1
T1 sequence (O60241 with tags, fused parts or gaps DEL308-417): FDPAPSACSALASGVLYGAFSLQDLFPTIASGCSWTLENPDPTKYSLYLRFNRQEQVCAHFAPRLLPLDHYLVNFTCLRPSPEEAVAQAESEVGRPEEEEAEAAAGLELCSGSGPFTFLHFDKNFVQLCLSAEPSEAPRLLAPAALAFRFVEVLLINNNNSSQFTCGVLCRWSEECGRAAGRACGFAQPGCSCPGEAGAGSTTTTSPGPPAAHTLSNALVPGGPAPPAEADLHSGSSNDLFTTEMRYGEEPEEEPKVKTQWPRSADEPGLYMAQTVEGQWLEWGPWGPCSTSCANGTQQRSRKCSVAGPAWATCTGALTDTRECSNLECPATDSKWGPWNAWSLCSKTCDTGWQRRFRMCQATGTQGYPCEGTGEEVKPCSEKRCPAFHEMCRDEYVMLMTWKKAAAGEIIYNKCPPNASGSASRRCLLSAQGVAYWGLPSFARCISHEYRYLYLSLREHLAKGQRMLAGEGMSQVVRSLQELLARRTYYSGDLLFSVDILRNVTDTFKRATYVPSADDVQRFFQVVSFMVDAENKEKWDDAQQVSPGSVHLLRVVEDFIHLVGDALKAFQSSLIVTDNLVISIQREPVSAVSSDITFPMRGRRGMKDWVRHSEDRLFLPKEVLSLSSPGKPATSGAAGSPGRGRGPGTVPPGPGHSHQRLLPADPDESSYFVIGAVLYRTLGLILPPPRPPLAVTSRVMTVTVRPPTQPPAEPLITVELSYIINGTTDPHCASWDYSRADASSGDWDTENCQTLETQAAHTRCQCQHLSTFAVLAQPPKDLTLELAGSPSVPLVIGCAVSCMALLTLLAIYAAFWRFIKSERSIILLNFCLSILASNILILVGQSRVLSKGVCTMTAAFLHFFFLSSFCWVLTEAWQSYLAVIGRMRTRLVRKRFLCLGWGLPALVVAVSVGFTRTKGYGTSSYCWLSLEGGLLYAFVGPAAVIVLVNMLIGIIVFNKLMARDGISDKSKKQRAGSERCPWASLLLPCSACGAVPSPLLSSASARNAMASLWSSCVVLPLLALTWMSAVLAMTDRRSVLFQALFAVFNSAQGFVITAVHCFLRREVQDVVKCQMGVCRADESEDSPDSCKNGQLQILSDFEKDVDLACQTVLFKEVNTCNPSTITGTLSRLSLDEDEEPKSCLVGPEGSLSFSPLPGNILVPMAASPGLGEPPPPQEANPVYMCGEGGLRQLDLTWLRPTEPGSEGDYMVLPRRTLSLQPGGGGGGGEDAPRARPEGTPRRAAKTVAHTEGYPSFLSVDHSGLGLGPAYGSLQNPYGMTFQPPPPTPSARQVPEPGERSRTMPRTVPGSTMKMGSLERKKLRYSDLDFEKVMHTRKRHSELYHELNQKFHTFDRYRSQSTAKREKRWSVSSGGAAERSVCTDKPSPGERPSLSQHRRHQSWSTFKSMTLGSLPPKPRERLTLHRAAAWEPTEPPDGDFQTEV
Description: The 7tmHR stably-expressing strain and the hk01941 stably-expressing strain were prepared by transfecting the 7tmHR-expressing vector (7tmHR/pcDNA3.1) and the hk01941-expressing vector (hk01941/pcDNA3.1), respectively, into a CHO-K1 cell strain. Specifically, the expression vector was mixed with Lipofectamine 2000, (may be referred to as LF2000, Invitrogen) (4 μg DNA/250 μL of DMEM/F12 medium+10 μL of LF2000/250 μL DMEM/F12 medium) and added the CHO-K1 strain (2 mL medium/well) cultured in a 6-well plate to be transfected thereinto. On the following day, cells were recovered and seeded in a 96-well plate at cell density of 1 cell/well, cultured in a selective medium containing G418 (400 μg/mL) (DMEM/F 12 medium containing 10% FCS), and screened for expression cell strains. […]
Changes in the intracellular calcium (Ca^2+) concentration induced by CCK-8S were measured by a method similar to the method described in Example 5 using the 7tmHR stably-expressing strain and the hk01941 stably-expressing strain prepared in Example 7. […]
Cells were seeded in a 96-well plate (a plate with a black wall and a transparent bottom) at a cell count of 3×10^4/100 μL of medium/well and cultured overnight at 37° C. in a 5% CO2 incubator. […] After reaction, changes over time in the fluorescence intensity in each well after addition of CCK-8S were measured using the FLEX station (Molecular Device). […]

variant 3 = assay: Changes in intracellular Ca2+ concentration in variant 3 gene stably-expressing strain; type: cell-based, human; conditions: variant3/CHO#14-18; A23187 20 μM, positive control
Description: Strains stably expressing splicing variants of the variant 3 gene were prepared by a method similar to the above-mentioned method using a variant 3 gene-expressing vector.
To analyze functions of the variant 3 gene, changes in the intracellular calcium (Ca^2+) concentration induced by CCK-8S were examined using a strain stably expressing the variant 3 gene prepared in Example 7. Changes in the intracellular calcium (Ca^2+) concentration were measured by a method similar to the method described in Example 5.
Cells were seeded in a 96-well plate (a plate with a black wall and a transparent bottom) at a cell count of 3×10^4/100 μL of medium/well and cultured overnight at 37° C. in a 5% CO2 incubator. On the following day, 50 μL of the medium was removed from each well, 50 μL of a loading buffer was added to each well, the mixture was reacted at room temperature for 1 h, so that a fluorescent dye contained in the loading buffer was taken up into the cell. The loading buffer was prepared by a method similar to the method described in Example 5. After reaction, changes over time in the fluorescence intensity after addition of CCK-8S in each well were measured using the FLEX station (Molecular Device) for 40 sec. CCK-8S was used at a final concentration of 10 pM to 1 μM. Furthermore, as a positive control of the assay, A23187 was used at a final concentration of 20 μM.

| Change in intracellular Ca2+ concentration after addition of CCK-8S (hk01941; hk01941 stably-expressing strain, CCK-8S 10 pM to 1 μM, figure at 1 nM) | Molecule | Change in intracellular Ca2+ concentration (fluorescence intensity) (hk01941; hk01941/CHO#13, A23187 20 μM, positive control) | Change in intracellular Ca2+ concentration (fluorescence intensity) (variant 3) |
| --- | --- | --- | --- |
| increase | cholecystokinin octapeptide sulfated form [CCK-8S] | – | – |
| – | CNc1ccc2oc(C[C@H]3O[C@@]4(CC[C@H]3C)O[C@H]([C@H](C)C(=O)c3ccc[nH]3)[C@H](C)C[C@H]4C)nc2c1C(=O)O [A23187] | increased | increased |
